Experimental data published in ChEMBL document CHEMBL1201862, “PubChem BioAssay data set” (2004).
Values joined by “and” are separate entries in the source; they are usually repeats but may differ in a detail not shown here. Identical values can stand only once.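 Dose response: 5 concentrations. Exposure: 48 h. Format: 96-well plates. Endpoint: linear interpolation; highest concentration if not reached. GI50 = concentration required for 50% inhibition of growth.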 Active and inactive are the calls of the source. No stated cut-off is given here; in the data, active = GI50 up to about 1.1 µM and inactive = higher.

What was measured:
Test in all cases: NCI tumour cell line growth inhibition, 48 h
[1] = test system: UACC-257
[2] = test system: NCI-H460
[3] = test system: MOLT-4
[4] = test system: RXF 393
[5] = test system: RPMI-8226
[6] = test system: HT-29
[7] = test system: COLO 205
[8] = test system: SR
[9] = test system: NCI-H522
[10] = test system: NCI/ADR-RES
[11] = test system: SK-MEL-2
[12] = test system: BT-549
[13] = test system: NCI-H226
[14] = test system: NCI-H23
[15] = test system: PC-3
[16] = test system: IGROV-1
[17] = test system: SK-OV-3
[18] = test system: HCT-15
[19] = test system: HL-60
[20] = test system: CCRF-CEM
[21] = test system: SNB-75
[22] = test system: OVCAR-5
[23] = test system: M14
[24] = test system: HOP-92
[25] = test system: K562
[26] = test system: MDA-MB-231
[27] = test system: HCT-116
[28] = test system: SF-295
[29] = test system: TK-10
[30] = test system: T47D
[31] = test system: MCF7
[32] = test system: SW-620
[33] = test system: EKVX
[34] = test system: SN12C
[35] = test system: SF-539
[36] = test system: UACC-62
[37] = test system: UO-31
[38] = test system: LOX IMVI
[39] = test system: HOP-62
[40] = test system: CAKI-1
[41] = test system: ACHN
[42] = test system: MDA-MB-435
[43] = test system: HCC 2998
[44] = test system: OVCAR-8
[45] = test system: U-251
[46] = test system: KM12
[47] = test system: SK-MEL-28
[48] = test system: A549
[49] = test system: MDA-N
[50] = test system: A498
[51] = test system: DU-145
[52] = test system: OVCAR-4
[53] = test system: OVCAR-3
[54] = test system: SK-MEL-5
[55] = test system: SNB-19
[56] = test system: 786-0
[57] = test system: Malme-3M
[58] = test system: SF-268

## CC1CCC2(NC1)OC1CC3C4CC=C5CC(O)CCC5(C)C4CCC3(C)C1C2C (configuration not stated)
[1]
  GI50: 55.8 µM (inactive) and 49.1 µM (inactive)
[2]
  GI50: 25.9 µM (inactive) and 14.1 µM (inactive)
[3]
  GI50: 18.3 µM (inactive) and 18.6 µM (inactive)
[4]
  GI50: 25.2 µM (inactive) and 16.8 µM (inactive)
[5]
  GI50: 20.6 µM (inactive) and 10.9 µM (inactive)
[6]
  GI50: 24.1 µM (inactive) and 12.5 µM (inactive)
[7]
  GI50: 58.5 µM (inactive) and 40.6 µM (inactive)
[8]
  GI50: 4 µM (inactive) and 2.87 µM (inactive)
[9]
  GI50: 31.1 µM (inactive) and 22.4 µM (inactive)
[10]
  GI50: 13.2 µM (inactive) and 14.4 µM (inactive)
[11]
  GI50: 29.9 µM (inactive) and 19.5 µM (inactive)
[12]
  GI50: 32.8 µM (inactive) and 48.5 µM (inactive)
[13]
  GI50: 54 µM (inactive) and 27.8 µM (inactive)
[14]
  GI50: 39.4 µM (inactive) and 37.1 µM (inactive)
[15]
  GI50: 22.7 µM (inactive) and 34.9 µM (inactive)
[16]
  GI50: 32.5 µM (inactive) and 35 µM (inactive)
[17]
  GI50: 24.8 µM (inactive) and 15.7 µM (inactive)
[18]
  GI50: 32.5 µM and 38.8 µM
[19]
  GI50: 15.1 µM (inactive) and 11.6 µM (inactive)
[20]
  GI50: 12.4 µM (inactive) and 15.2 µM (inactive)
[21]
  GI50: 4.72 µM (inactive)
[22]
  GI50: 39.1 µM (inactive) and 40.3 µM (inactive)
[23]
  GI50: 76.6 µM (inactive) and 42.1 µM (inactive)
[24]
  GI50: 19.5 µM (inactive) and 17.5 µM (inactive)
[25]
  GI50: 14.9 µM (inactive)
[26]
  GI50: 12.8 µM (inactive) and 24.9 µM (inactive)
[27]
  GI50: 18.8 µM (inactive) and 9.86 µM (inactive)
[28]
  GI50: 24.9 µM (inactive) and 18.7 µM (inactive)
[29]
  GI50: 12.4 µM (inactive) and 20.4 µM (inactive)
[30]
  GI50: 23.4 µM (inactive) and 17.5 µM (inactive)
[31]
  GI50: 23.2 µM (inactive) and 42.9 µM (inactive)
[32]
  GI50: 18.5 µM (inactive) and 27.8 µM (inactive)
[33]
  GI50: 22.5 µM (inactive) and 37.4 µM (inactive)
[34]
  GI50: 15 µM (inactive) and 22.8 µM (inactive)
[35]
  GI50: 17.3 µM (inactive) and 10.9 µM (inactive)
[36]
  GI50: 27.2 µM (inactive) and 18.1 µM (inactive)

## NC1(c2cc3ccccc3s2)CCCCCC1
[37]
  GI50: 14.4 µM (inactive)
[38]
  GI50: 17.9 µM (inactive)
[39]
  GI50: 14.6 µM (inactive)
[1]
  GI50: 16.3 µM (inactive)
[2]
  GI50: 15 µM (inactive)
[3]
  GI50: 14.1 µM (inactive)
[4]
  GI50: 12.7 µM (inactive)
[6]
  GI50: 14.2 µM (inactive)
[40]
  GI50: 13.8 µM (inactive)
[7]
  GI50: 12.6 µM (inactive)
[8]
  GI50: 16.2 µM (inactive)
[41]
  GI50: 19.3 µM (inactive)
[10]
  GI50: 15 µM (inactive)
[11]
  GI50: 10.4 µM (inactive)
[42]
  GI50: 16.1 µM (inactive)
[43]
  GI50: 1.98 µM (inactive)
[44]
  GI50: 17.3 µM (inactive)
[45]
  GI50: 15.7 µM (inactive)
[12]
  GI50: 17.7 µM (inactive)
[13]
  GI50: 19.8 µM (inactive)
[14]
  GI50: 17.3 µM (inactive)
[15]
  GI50: 11.7 µM (inactive)
[16]
  GI50: 14.7 µM (inactive)
[17]
  GI50: 17.1 µM (inactive)
[18]
  GI50: 17.1 µM
[19]
  GI50: 14.8 µM (inactive)
[20]
  GI50: 16 µM (inactive)
[46]
  GI50: 16 µM (inactive)
[21]
  GI50: 11.1 µM (inactive)
[22]
  GI50: 15 µM (inactive)
[23]
  GI50: 18.8 µM (inactive)
[47]
  GI50: 16.7 µM (inactive)
[48]
  GI50: 18.1 µM (inactive)
[24]
  GI50: 14 µM (inactive)
[25]
  GI50: 10.1 µM (inactive)
[26]
  GI50: 15.7 µM (inactive)
[49]
  GI50: 16.6 µM (inactive)
[50]
  GI50: 20.7 µM (inactive)
[27]
  GI50: 16.1 µM (inactive)
[51]
  GI50: 17.2 µM (inactive)
[52]
  GI50: 14.4 µM (inactive)
[28]
  GI50: 18.3 µM (inactive)
[29]
  GI50: 15.4 µM (inactive)
[53]
  GI50: 15.7 µM (inactive)
[31]
  GI50: 16.1 µM (inactive)
[32]
  GI50: 16.3 µM (inactive)
[54]
  GI50: 15.1 µM (inactive)
[33]
  GI50: 18.7 µM (inactive)
[34]
  GI50: 16.8 µM (inactive)
[55]
  GI50: 18.2 µM (inactive)
[35]
  GI50: 18 µM (inactive)
[36]
  GI50: 18 µM (inactive)
[56]
  GI50: 15.5 µM (inactive)

## O=S(=O)(O)c1ccc2c(/N=N/c3ccccc3)c(O)ccc2c1
[37]
  GI50: > 100 µM (inactive)
[1]
  GI50: > 100 µM (inactive)
[2]
  GI50: > 100 µM (inactive)
[3]
  GI50: > 100 µM (inactive)
[4]
  GI50: > 100 µM (inactive)
[40]
  GI50: > 100 µM (inactive)
[7]
  GI50: > 100 µM (inactive)
[8]
  GI50: > 100 µM (inactive)
[11]
  GI50: > 100 µM (inactive)
[42]
  GI50: > 100 µM (inactive)
[43]
  GI50: > 100 µM (inactive)
[44]
  GI50: > 100 µM (inactive)
[45]
  GI50: > 100 µM (inactive)
[12]
  GI50: > 100 µM (inactive)
[16]
  GI50: > 100 µM (inactive)
[17]
  GI50: > 100 µM (inactive)
[18]
  GI50: > 100 µM
[19]
  GI50: > 100 µM (inactive)
[20]
  GI50: > 100 µM (inactive)
[46]
  GI50: > 100 µM (inactive)
[21]
  GI50: > 100 µM (inactive)
[22]
  GI50: > 100 µM (inactive)
[23]
  GI50: > 100 µM (inactive)
[47]
  GI50: > 100 µM (inactive)
[24]
  GI50: > 100 µM (inactive)
[50]
  GI50: > 100 µM (inactive)
[27]
  GI50: > 100 µM (inactive)
[51]
  GI50: > 100 µM (inactive)
[30]
  GI50: > 100 µM (inactive)
[53]
  GI50: > 100 µM (inactive)
[31]
  GI50: > 100 µM (inactive)
[32]
  GI50: > 100 µM (inactive)
[54]
  GI50: > 100 µM (inactive)
[33]
  GI50: > 100 µM (inactive)
[34]
  GI50: > 100 µM (inactive)
[55]
  GI50: > 100 µM (inactive)
[35]
  GI50: > 100 µM (inactive)
[56]
  GI50: > 100 µM (inactive)

## Oc1ccc(-c2nc3cc(C(F)(F)F)ccc3s2)cc1
[37]
  GI50: 13.6 µM (inactive)
[38]
  GI50: 12.8 µM (inactive)
[1]
  GI50: 18 µM (inactive)
[2]
  GI50: 15.4 µM (inactive)
[3]
  GI50: 27.2 µM (inactive)
[4]
  GI50: 17.4 µM (inactive)
[5]
  GI50: 16.7 µM (inactive)
[6]
  GI50: 18.9 µM (inactive)
[40]
  GI50: 15.7 µM (inactive)
[7]
  GI50: 18.8 µM (inactive)
[8]
  GI50: 15.8 µM (inactive)
[41]
  GI50: 14.5 µM (inactive)
[9]
  GI50: 12.6 µM (inactive)
[10]
  GI50: 20 µM (inactive)
[11]
  GI50: 16.1 µM (inactive)
[42]
  GI50: 15.7 µM (inactive)
[44]
  GI50: 15.6 µM (inactive)
[45]
  GI50: 16.1 µM (inactive)
[12]
  GI50: 15.1 µM (inactive)
[13]
  GI50: 17.3 µM (inactive)
[14]
  GI50: 15.9 µM (inactive)
[15]
  GI50: 14.5 µM (inactive)
[16]
  GI50: 11.2 µM (inactive)
[17]
  GI50: 26 µM (inactive)
[18]
  GI50: 10.1 µM
[19]
  GI50: 18.1 µM (inactive)
[20]
  GI50: 12.2 µM (inactive)
[46]
  GI50: 13.1 µM (inactive)
[22]
  GI50: 17.2 µM (inactive)
[23]
  GI50: 15.5 µM (inactive)
[48]
  GI50: 15.4 µM (inactive)
[25]
  GI50: 23.9 µM (inactive)
[26]
  GI50: 14.2 µM (inactive)
[49]
  GI50: 17.7 µM (inactive)
[50]
  GI50: 18.2 µM (inactive)
[27]
  GI50: 14.5 µM (inactive)
[51]
  GI50: 16.4 µM (inactive)
[57]
  GI50: 13.6 µM (inactive)
[58]
  GI50: 16.1 µM (inactive)
[28]
  GI50: 15 µM (inactive)
[29]
  GI50: 18.8 µM (inactive)
[53]
  GI50: 15 µM (inactive)
[31]
  GI50: 10.2 µM (inactive)
[32]
  GI50: 20.2 µM (inactive)
[54]
  GI50: 14.9 µM (inactive)
[33]
  GI50: 1.77 µM (inactive)
[34]
  GI50: 17.7 µM (inactive)
[55]
  GI50: 16.7 µM (inactive)
[35]
  GI50: 19.5 µM (inactive)
[36]
  GI50: 13.9 µM (inactive)
